Assay results published in patent publication US8802720B2, “Acylamino-substituted fused cyclopentanecarboxylic acid derivatives and their use as pharmaceuticals” (SANOFI, priority 2008, dated 2014).

Molecular target: human Edg-2 receptor (LPA1 receptor) (Homo sapiens, UniProt Q92633)
Assay: Edg-2 receptor inhibition by FLIPR calcium fluorescence measurement (LPA-mediated calcium liberation)
Type: cell-based
Conditions: CHO cells stably overexpressing human Edg-2 receptor; LPA 18:1 100 nM; fluo-4 fluorescence; triplicate; read-out: Inhibitory concentrations IC50 for inhibition of the Edg-2 receptor
Summary of the method: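 CHO cells stably overexpressing human Edg-2 were fluo-4 loaded and pre-incubated ~5 min with compound (≤0.3% DMSO) in HBSS/HEPES/probenecid, pH 7.5. Then LPA 18:1 at 100 nM final was added. Peak calcium fluorescence over ~3 min, baseline-corrected versus DMSO, gave % inhibition in triplicate and IC50.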

human Edg-2 receptor (LPA1 receptor), sequence (Q92633 whole entry): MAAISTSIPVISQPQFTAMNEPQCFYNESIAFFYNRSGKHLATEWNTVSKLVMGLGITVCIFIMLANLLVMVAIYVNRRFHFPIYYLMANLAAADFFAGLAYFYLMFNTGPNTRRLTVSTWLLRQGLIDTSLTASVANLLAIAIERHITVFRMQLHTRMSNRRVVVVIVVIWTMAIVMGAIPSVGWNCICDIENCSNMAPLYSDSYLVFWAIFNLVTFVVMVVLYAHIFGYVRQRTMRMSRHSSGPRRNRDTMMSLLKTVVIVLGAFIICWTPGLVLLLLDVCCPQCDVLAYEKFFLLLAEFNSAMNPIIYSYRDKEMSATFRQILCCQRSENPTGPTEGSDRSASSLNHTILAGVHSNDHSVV

SMILES | IC50 [nM]
COc1ccc(C(=O)NC2(C(=O)O)Cc3ccccc3C2)cc1OCCc1nonc1C [Example 353] | 1000 to 30000
COc1ccc(C(=O)NC2(C(=O)O)Cc3ccccc3C2)cc1OCCc1noc2ccccc12 [Example 354] | 1000 to 30000
COc1c(F)cc(C(=O)NC2(C(=O)O)Cc3ccccc3C2)cc1-c1cccc(C(C)C)c1 [Example 360, 2-[(5-fluoro-3′-isopropyl-6-methoxy-biphenyl-3-carbonyl)-amino]-indane-2-carboxylic acid] | < 100
COc1c(F)cc(C(=O)NC2(C(=O)O)Cc3ccccc3C2)cc1-c1cccc(NS(=O)(=O)N(C)C)c1 [Example 361] | < 100
O=C(NC1(C(=O)O)Cc2ccccc2C1)c1ccc(C(F)(F)F)c(OCCc2cc(Cl)ccc2Cl)c1 [Example 362, 2-{3-[2-(2,5-Dichloro-phenyl)-ethoxy]-4-trifluoromethyl-benzoylamino}-indane-2-carboxylic acid] | < 100

Further lines, results first:

IC50 [nM] | SMILES
< 100 | COc1ccc(C(=O)NC2(C(=O)O)Cc3ccccc3C2)cc1OCCc1cc(OC(F)(F)F)ccc1F [Example 355, 2-{3-[2-(2-fluoro-5-trifluoromethoxy-phenyl)-ethoxy]-4-methoxy-benzoylamino}-indane-2-carboxylic acid]
< 100 | CCS(=O)(=O)c1cccc(-c2cc(C(=O)NC3(C(=O)O)Cc4ccccc4C3)cc(F)c2OC)c1 [Example 357, 2-[(3′-Ethanesulfonyl-5-fluoro-6-methoxy-biphenyl-3-carbonyl)-amino]-indane-2-carboxylic acid]
< 100 | COc1c(F)cc(C(=O)NC2(C(=O)O)Cc3ccccc3C2)cc1-c1ccc(Cl)cc1 [Example 358]
< 100 | COc1c(F)cc(C(=O)NC2(C(=O)O)Cc3ccccc3C2)cc1-c1cccc(NS(C)(=O)=O)c1 [Example 359]
